The values that follow come from patent publication US9708289B2, “Imidazole diketone compound and use thereof” (HINOVA PHARMACEUTICALS INC., priority 2013, dated 2017).

Data set [1] is described as follows: Evaluation of pharmacokinetics in mice. As to conditions: 10 mg/kg intragastric; for Tmax: Kunming (KM), mouse, po; for Tmax / Cmax: male KM mice, plasma; for Cmax compared with undeuterated compound 10: mice. Format: in vivo, Kunming mice (KM mice). The procedure: 10 mg/kg compound 10, 14, 17, 20 were intragastrically administered to Healthy Kunming mice (KM mice), male, weighing 18-20 g. Compounds were dissolved in DMSO:PEG400:H2O 1:5:14. The volume of administration was 10 mL/kg. Before testing, the mice fasted for 12 h and drunk water ad libitum. Then, the mice were fed together at 2 h after administration. 0.3 mL of blood were took from 3 mice through retrobulbar venous plexus at 0.5, 1.0, 2.0, 4.0, 6.0 and 24 h after administration, placed in heparinized tubes, and centrifuged for 5 min at 11000 rpm. The plasma was separated and frozen in a refrigerator at −20° C. 100 uL of serum was transferred with a pipettor into a clean plastic centrifuge tube marked with compound's name and time point, and diluted with acetonitrile (CH3CN) and centrifuged. The concentration of drug was analyzed by LC-MS. Serum was stored at −80° C. before analysis. The pharmacokinetic parameters of deuterated compound (compound 14, 17, and 20) and undeuterated compound (compound 10) were show in following table.

Data set [2] is described as follows: Evaluation of pharmacokinetics in rats. As to conditions: 10 mg/kg intragastric; for AUCINF_obs / Tmax / AUC(0-t) / MRT / half-life / Cmax: male SD rats, mean, n = 4. Format: in vivo, SD rats. On the procedure:
10 mg/kg compound 10, and 14 were intragastrically administered to SD rats male, weighing […]. Compounds were dissolved in DMSO:PEG400:H2O 1:5:14. The volume of administration was 10 mL/kg. Conventional methods were used for the results evaluation.

The test system of data set [3] is human prostate cancer LNCaP. Put plainly: Inhibition of the growth of prostate cancer cells (MTT, R1881-stimulated). Format: cell-based. As to conditions: for IC50: Homo sapiens, R1881 added, 96 hours, MTT, read-out: IC50, inhibition activity on LNCap/AR cell. The procedure:
The ability of compounds to inhibit the growth of prostate cancer cells was tested:
First, the human prostate cancer LNCaP (purchased from ATCC, USA) was transferred to a RPM11640 culture medium containing 10% charcoal-stripped fetal bovine serum (FBS). After cultured for three days, the cells were digested with 0.25% trypsin and counted through trypan blue staining. The cells were plated, with 100 μL cell suspension containing 4000 cells per well. 200 μL medium was added to the wells around the cell plate for avoiding edge effects.
The next day, 6 drug concentrations was prepared (48.6 μM, 19.44 μM, 7.776 μM, 3.11 μM, 1.24 μM, 0.5 μM) before administration, and 100 μL of corresponding compound at corresponding concentration was added into each well of a cell plate. The cell plate was placed in a cell incubator for 30 min, 10 μL of 4 nM R1881 was added into each well and homogeneously mixed. Upon the addition of R1881, the cell plate was placed in a cell incubator and incubated at 37° C., under 5% CO2 for 96 hours. Afterwards, 40 μL of MTT (prepared in PBS, concentration is 2.5 mg/mL) was added into each wells, and incubated at 37° C. for 2 hours. The supernatant was sucked off, and 100 μL of DMSO was added into each well. The plate was shaken by a vibrator for 10 min for dissolving formazan. The plate was read at 570 nm wavelength using a microplate reader in the unit of OD. The inhibition rate of test compounds was calculated with the following equation: IR (%)=(ODcontrol−ODsample)/(ODcontrol−ODblank)×100%
The inhibition rate curve of test compounds was plotted using the software XLFit (Formula 205), which can calculate the 50% inhibition rate, i.e. IC50.

What is called Tmax is the time from dosing to the highest level. What is called Cmax is the highest concentration seen after dosing. Regarding `[2H]c1cc(C(=O)NC)c(F)c([2H])c1N1C(=S)N(c2cnc(C#N)c(C(F)(F)F)c2)C(=O)C12CCC2` [Compound 17, 4-[7-(6-cyano-5-trifluoromethyl-3-pyridyl)-8-oxo-6-thio-5,7-diazaspiro [3,4]-5-octyl]-3,5-bideuterium-2-fluoro-N-methyl-benzamide], in data set [1], the Tmax was 6 h and the Cmax turned out to be 3480 ng/mL.

By AUC(0-t) is commonly meant exposure summed from dosing to a finite time, without extrapolation to infinity. A higher AUC(0-t) goes with more exposure. The term MRT denotes a mean duration of stay, worked out from the concentration-time curve. The term half-life denotes the time needed for the level to fall by half in the phase considered. `[2H]C([2H])([2H])NC(=O)c1ccc(N2C(=S)N(c3cnc(C#N)c(C(F)(F)F)c3)C(=O)C23CCC3)cc1F` [Compound 14, 4-[7-(6-cyano-5-trifluoromethyl-3-pyridyl)-8-oxo-6-thio-5,7-diazaspiro [3, 4]-5-octyl]-2-fluoro-N-trideuterated methyl-benzamide]: in data set [2], the AUCINF_obs is 28729 ng·h/mL and the Tmax was determined as 3.500 h. In data set [2] (rat, in vivo, po), this molecule showed an AUC(0-t) of 24100 ng·h/mL, an MRT of 13 h and a half-life of 8.93 h. In data set [2] (rat, in vivo, po, read-out: Cmax), the Cmax worked out at 1700 ng/mL. Also, in data set [2] (rats), the “AUC relative to compound 10” value is listed as “about 2 fold”, the “Cmax relative to compound 10” value is reported as “about 2 fold” and the “half-life compared with compound 10” value is “longer half-life”. In data set [1], the Tmax came to 4 h, the Cmax came to 4480 ng/mL and the “Cmax compared with undeuterated compound 10” value is listed as “significantly increased”. Moreover, in data set [3], the “inhibition on the growth of prostate cancer cell compared with compound 10” value is reported as “better inhibition” and the IC50 was determined as 280 nM.

On to `[2H]c1cc(C(=O)NC([2H])([2H])[2H])c(F)c([2H])c1N1C(=S)N(c2cnc(C#N)c(C(F)(F)F)c2)C(=O)C12CCC2` [Compound 20, 4-[7-(6-cyano-5-trifluoromethyl-3-pyridyl)-8-oxo-6-thio-5,7-diazaspiro[3,4]-5-octyl]-3,5-bideuterium-2-fluoro-N-trideuteromethyl-benzamide], for which, in data set [1], the Tmax worked out at 4 h, the maximum concentration (Cmax) was determined as 3940 ng/mL and the “Cmax compared with undeuterated compound 10” value was “significantly increased”.

As to `CNC(=O)c1ccc(N2C(=S)N(c3cnc(C#N)c(C(F)(F)F)c3)C(=O)C23CCC3)cc1F` [Compound 10, 4-[7-(6-cyano-5-trifluoromethyl-3-pyridyl)-8-oxo-6-thio-5,7-diazaspiro [3, 4]-5-octyl]-2-fluoro-N-methyl-benzamide, reference compound], in data set [2], the AUCINF_obs is 14752 ng·h/mL, the Cmax was found to be 946.0 ng/mL and the Tmax worked out at 3.500 h. For the same molecule, in data set [2] (rat, in vivo, po), the AUC(0-t) amounted to 13100 ng·h/mL, the mean residence time MRT amounted to 10.7 h and the half-life is 7.38 h. For the same molecule, in data set [1], the Tmax came out at 6 h and the Cmax was 3320 ng/mL. In addition, in data set [3], the IC50 stood at 637 nM.
